The test system of the test is cholesterol oxidase. Nature of the test: Relative absorbance of free cholesterol reaction in serum with cholesterol oxidase and fulfenamic acid (Reagents J to L). It is filed as biochemical. The settings on record: 600 nm, 37° C. 5 minutes, pH 6.0/7.0/8.0, 5.0 U/mL cholesterol oxidase and 0 mM fulfenamic acid = 100, average of four serum samples. The procedure:
Reagents J to L shown below in Table 6 were prepared, which commonly contained 1.25 U/mL peroxidase (product of Toyobo Co., Ltd.), 0.01% 4-aminoantipyrine, 0.02% disulfo butyl-m-toluidine and 50 mM NaCl and were different from each other in the kind and pH of buffer and the concentrations of cholesterol oxidase (product of Toyobo Co., Ltd.) and fulfenamic acid (product of Sigma Chemical Co.).
Reagents J to L (300 μL) were separately added to aliquots (3 μL) of each serum sample. After the resultant mixtures were incubated at 37° C. for 5 minutes, their absorbances were measured at600 nm. The above procedures were conducted using the Hitachi 7150 automated analyzer.
With respect to each of Reagents J to L, relative absorbances were calculated for the individual concentrations of cholesterol oxidase and fulfenamic acid by assuming that the absorbance obtained with a reagent containing 5.0 U/mL cholesterol oxidase and 0 mM fulfenamic acid was 100.
Results, which had been obtained by averaging the relative absorbances of the four samples, are presented in FIG. 3. in which “COD” stands for cholesterol oxidase.

Here are results for 1 compound from US6818414B1, “Method of pretreatment of sample for quantitating cholesterol and method for quantitating cholesterol in specific lipoproteins by using the same” (Daiichi Pure Chemicals Co., Ltd., priority 1999, dated 2004).

`O=C(O)c1ccccc1Nc1cccc(C(F)(F)F)c1` [fulfenamic acid, flufenamic acid]: the relative absorbance entry was “increased depending upon the concentration of fulfenamic acid irrespective of the pH”.
